Data as given in paper PMC9387934, “Randomized single oral dose phase 1 study of safety, tolerability, and pharmacokinetics of Iminosugar UV-4 Hydrochloride (UV-4B) in healthy subjects” (PLoS Neglected Tropical Diseases, 2022).
Several values for one entry are separate records, joined by “and”; a condition that tells them apart may be missing. Equal entries are not always repeated. Where two headings read alike, the source gives them in different places.

Experiment: Phase 1a single ascending dose study: UV-4 in pooled urine, urinary recovery and renal clearance
Assay type: in vivo, human
Settings: for dose excreted: human, urine, oral, 48 hours
Description: Serial blood samples were collected at pre-dose (0 hour) and 0.5, 1, 1.5, 2, 2.5, 3, 4, 6, 9, 12, 18, 24, 36, and 48 hours post-dose for assessment of UV-4 concentrations in plasma. Pooled urine samples were collected at pre-dose (-12 to 0 hour) and from 0 to 6, 6 to 12, 12 to 24, and 24 to 48 hours post-dose for assessment of UV-4 concentrations in urine. Plasma and urine concentrations of UV-4 were determined by means of validated, sensitive, and specific high-performance liquid chromatography/tandem mass spectrometric (LC-MS/MS) assays. UV-4 plasma and urine concentrations and PK parameters were listed and summarized by dose, as appropriate. Only the 48 subjects who received active investigational product were included in the PK analysis population.
8.2.3 Specimen Preparation, Handling, and Shipping
8.2.3.1 Instructions for Specimen Preparation, Handling, and Storage
The collected PK blood samples (2 mL) will be placed on ice after blood draw, and within 1 hour centrifuged at room temperature at approximately 3000 revolutions per minute for 15 minutes. Plasma will then be harvested and split into 4 aliquots of approximately 250 μ L and stored frozen at -20°C until shipped.
Urine samples (approximately 10 mL) for determination of UV-4 concentrations in urine will be taken from the total volume provided during each collection period. The total volume of each urine collection will be recorded along with the start/stop time for each urine collection interval.
Analysis of plasma and urine for UV-4 will be performed by the qualified bioanalytical laboratory, Quintiles Bioservices, Inc., Ithaca, New York 14950. Instructions for the proper preparation, handling, storage and shipping of specimens will be provided separately in a study-specific laboratory manual (i.e., Biopacket).
8.2.3.2 Specimen Shipment […]
The following single-dose urine PK parameters will be estimated from the UV-4 urine concentration-time data collected, as appropriate:
Ae Amount of UV-4 excreted in urine unchanged, calculated for each collection interval and cumulatively across intervals fe Fraction of UV-4 excreted in urine unchanged, calculated for each collection interval and cumulatively across intervals […]
Additional UV-4 PK parameters may be calculated at the discretion of the […]
Plasma concentrations and plasma and urine PK parameters will be summarized by treatment using descriptive statistics, as appropriate. Figures for the arithmetic mean (and SD) concentration-time data will be presented for all doses on both a linear and semi-logarithmic scale. Individual concentration-time data will be graphically presented on linear and semi-logarithmic scales. Scatter plots of individual and geometric mean PK parameters versus dose will be presented. Additional graphical presentations of PK data may be added at the discretion of the PK analyst.
Dose proportionality of Cmax, AUC(0-last), and AUC(0-inf) will be assessed graphically and statistically using the power model approach with the logarithm of PK parameters AUC(0-inf) and Cmax as the dependent variables and the logarithm of the dose as the independent variable: ([AUC(0-inf), AUC(0-last), or Cmax]=α *doseβ).
11.4.7 Deviation from Original Analysis Plan
Deviations from the formal statistical analysis plan will be noted in the final Clinical Study

Q: Which results are given for `COCCCCCCCCCN1C[C@H](O)[C@@H](O)[C@H](O)[C@H]1CO` [UV4]?
A: CONCENTRATION UV4 in human urine (Cohort 1, nominal day 1, nominal hour 0 (pre-dose), individual subjects): <LLOQ (0.500) ng/mL; CONCENTRATION UV4 in human urine (Cohort 1, nominal day 1, nominal hour 6, individual subjects): 650 ng/mL and 868 ng/mL; CONCENTRATION UV4 in human urine (Cohort 1, nominal day 1, nominal hour 12, individual subjects): 414 ng/mL and 455 ng/mL; CONCENTRATION UV4 in human urine (Cohort 1, nominal day 2, nominal hour 24, individual subjects): 99.1 ng/mL and 451 ng/mL; CONCENTRATION UV4 in human urine (Cohort 1, nominal day 2, nominal hour 48, individual subjects): 74.6 ng/mL and 166 ng/mL; CONCENTRATION UV4 in human urine (Cohort 3, nominal day 1, nominal hour 0 (pre-dose), individual subjects): <LLOQ (0.500) ng/mL; CONCENTRATION UV4 in human urine (Cohort 3, nominal day 1, nominal hour 6, individual subjects): 6240 ng/mL and 8650 ng/mL and 11700 ng/mL; CONCENTRATION UV4 in human urine (Cohort 3, nominal day 1, nominal hour 12, individual subjects): 8820 ng/mL and 2090 ng/mL and 1200 ng/mL and 11200 ng/mL; CONCENTRATION UV4 in human urine (Cohort 3, nominal day 2, nominal hour 24, individual subjects): 3300 ng/mL and 754 ng/mL and 614 ng/mL and 3690 ng/mL; CONCENTRATION UV4 in human urine (Cohort 3, nominal day 2, nominal hour 48, individual subjects): 721 ng/mL and 248 ng/mL and 147 ng/mL and 900 ng/mL; CONCENTRATION UV4 in human urine (Cohort 4, nominal day 1, nominal hour 0 (pre-dose), individual subjects): <LLOQ (0.500) ng/mL and 1.11 ng/mL; CONCENTRATION UV4 in human urine (Cohort 4, nominal day 1, nominal hour 6, individual subjects): 46400 ng/mL and 48400 ng/mL and 30900 ng/mL and 140000 ng/mL and 54900 ng/mL and 36000 ng/mL; CONCENTRATION UV4 in human urine (Cohort 4, nominal day 1, nominal hour 12, individual subjects): 3970 ng/mL and 24500 ng/mL and 26000 ng/mL and 15000 ng/mL and 33100 ng/mL and 11200 ng/mL; CONCENTRATION UV4 in human urine (Cohort 4, nominal day 2, nominal hour 24, individual subjects): 1230 ng/mL and 7560 ng/mL and 8120 ng/mL and 8370 ng/mL and 4550 ng/mL and 3920 ng/mL; CONCENTRATION UV4 in human urine (Cohort 4, nominal day 2, nominal hour 48, individual subjects): 367 ng/mL and 2090 ng/mL and 1260 ng/mL and 1810 ng/mL and 473 ng/mL and 648 ng/mL; CONCENTRATION UV4 in human urine (Cohort 5, nominal day 1, nominal hour 0 (pre-dose), individual subjects): <LLOQ (0.500) ng/mL; CONCENTRATION UV4 in human urine (Cohort 5, nominal day 1, nominal hour 6, individual subjects): 122000 ng/mL and 104000 ng/mL and 75800 ng/mL and 62800 ng/mL and 65800 ng/mL and 68800 ng/mL; CONCENTRATION UV4 in human urine (Cohort 5, nominal day 1, nominal hour 12, individual subjects): 17100 ng/mL and 26900 ng/mL and 16200 ng/mL and 22000 ng/mL and 21200 ng/mL and 18200 ng/mL; CONCENTRATION UV4 in human urine (Cohort 5, nominal day 2, nominal hour 24, individual subjects): 5200 ng/mL and 6760 ng/mL and 4560 ng/mL and 7550 ng/mL and 11900 ng/mL and 7200 ng/mL; CONCENTRATION UV4 in human urine (Cohort 5, nominal day 2, nominal hour 48, individual subjects): 706 ng/mL and 961 ng/mL and 775 ng/mL and 2920 ng/mL and 2030 ng/mL and 1860 ng/mL; CONCENTRATION UV4 in human urine (Cohort 6, nominal day 1, nominal hour 0 (pre-dose), individual subjects): <LLOQ (0.500) ng/mL; CONCENTRATION UV4 in human urine (Cohort 6, nominal day 1, nominal hour 6, individual subjects): 357000 ng/mL and 97600 ng/mL and 326000 ng/mL and 75900 ng/mL and 182000 ng/mL and 126000 ng/mL; CONCENTRATION UV4 in human urine (Cohort 6, nominal day 1, nominal hour 12, individual subjects): 35000 ng/mL and 12100 ng/mL and 104000 ng/mL and 38000 ng/mL and 15200 ng/mL and 19200 ng/mL; CONCENTRATION UV4 in human urine (Cohort 6, nominal day 2, nominal hour 24, individual subjects): 6830 ng/mL and 2550 ng/mL and 4060 ng/mL and 7760 ng/mL and 6220 ng/mL and 12700 ng/mL; CONCENTRATION UV4 in human urine (Cohort 6, nominal day 2, nominal hour 48, individual subjects): 1470 ng/mL and 442 ng/mL and 1480 ng/mL and 1390 ng/mL and 830 ng/mL

Q: With `COCCCCCCCCCN1C[C@H](O)[C@@H](O)[C@H](O)[C@H]1CO` [UV-4, N-(9’-methoxynonyl)-1-deoxynojirimycin] as the compound, how does the “Time over which UV-4 was quantifiable in pooled urine” value (all doses (3 to 1000 mg), entire collection interval) read?
A: 48 h

Q: And the dose excreted (3 to 1000 mg dose range, read-out: UV-4 recovery in urine, range of dose group means)?
A: 39.8 to 55.1%

Q: What about the dose excreted (10 to 1000 mg dose range, read-out: Urinary recovery, range of dose group means) of the same compound?
A: 46.4 to 55.1%

Q: And the “Renal clearance as share of UV-4 apparent systemic clearance” value (in vivo)?
A: ≥ 50%
